Reference: EP4494649A1, “PEPTIDES FOR USE IN THE TREATMENT OF AXONAL DAMAGE IN DIABETES” (Universität zu Köln, priority 2023, dated 2025)

Tests used:
Cdk5-p25 = conditions: embryonal neuronal cells; cited from earlier work
Cdk5-p35 = conditions: embryonal neuronal cells; cited from earlier work
diabetic sciatic nerve [1] = assay: Anatomical axon regeneration after sciatic nerve crush (SNC) in streptozotocin-induced T1DM mice; type: in vivo; conditions: strep-induced T1DM mice, intrathecal injection 1 day prior and on the day of the SNC, 3 dpi
Protocol: (§1) To model type 1 diabetes mellitus (T1DM), male and female wild-type Ola received a single intraperitoneal injection of 100 mg/kg streptozotocin (strep) or vehicle (veh; 0.1 M citrate buffer, pH 4.5) at 4-6 weeks of age. The efficacy of the treatment was confirmed by assessing blood glucose levels 1 week after injection. Strep mice with over 250 mg/dl of blood glucose were considered diabetic. Thus, diabetes was induced 2 months before sciatic nerve crush.
All surgical procedures on mice adhered to respective animal care guidelines and were approved by the local authorities (LANUV Recklinghausen). For intrathecal AAV2.1 (CRMP2T514A-HA, GFP, tdTomato, and Cre-GFP: titer: ≥7·1012 vg/ml, Addgene), a 5 mm skin incision was made above the L4-L5 spines. The muscle tissue was carefully spread, and 2.5 µl of the viral solution was injected into the cerebrospinal fluid between the L4 and L5 spines using a Nanoject II injector (Drummond Scientific) with three consecutive 833 nl injections with a speed of 23 nl/s and 20 s intervals between injections. The skin was closed using 6-0 sutures. Transduction was performed 2 weeks before sciatic nerve crush (SNC). SNC was performed as described in Gobrecht et al., Nature Communications 5, 4561 (2014) and Gobrecht et al., (2016). In brief, animals were anesthetized by inhalation anaesthesia with 1.5% isoflurane in oxygen, and a skin incision of 5 mm was made above the gluteal region. […]
For assessment of anatomical regeneration, the sciatic nerves were isolated 3 days post-injury (dpi). […] Regeneration of sympathetic fibers was quantified with immunostaining against tyrosine hydroxylase (TH; Novus, 1:500; RRID:AB_10077691).
To verify the regeneration-stimulating effect of the peptide, axonal regeneration was determined in vivo. […] Anatomical regeneration was assessed 3 days post-injury (dpi).
To verify the regeneration-stimulating effect in vivo, axonal regeneration was determined. […] Anatomical regeneration was assessed 3 days post-injury (dpi).

CRMP2 = assay: Inhibitory CRMP2 phosphorylation (pCRMP2^T514) in DRG of diabetic mice, Western blot and immunostaining; type: in vivo
Protocol: as §1
The intrathecal application of anti-peptide against CDK5 (AP-CDK5) and P5 was performed with the above-described method to assess anatomical regeneration. […]
DRG (L3-L5) or 3 mm of the sciatic nerves proximal to the injury site from three mice per group were homogenized by sonication in 100 µl lysis buffer (20 mM Tris-HCl pH 7.5, 10 mM KCl, 250 mM sucrose, 10 mM NaF, 1mM DTT, 0.1 mM Na3VO4, 1% Triton X-100, 0.1% SDS, 1% protease inhibitors (Merck Millipore) and phosphatase inhibitors (Roche)). […] All antibodies were detected with anti-rabbit or anti-mouse IgG secondary antibodies conjugated to HRP (1:80,000; Sigma). […]
[…] Antibodies were detected with anti-rabbit, anti-goat, or anti-mouse secondary antibodies conjugated to Dylight-405,_Alexa-594, or Alexa-488.
Figure 1H illustrates the timeline of experiments. […] After SNC, SSI and von Frey tests were assessed before the day of SNC, and days 1, 4, 7, 9, 14, 21, 28, and 35 thereafter. […]

diabetic sciatic nerve [2] = assay: Static sciatic index (SSI), functional motor recovery after SNC in diabetic mice; type: in vivo
Protocol: (§2) The intrathecal application of anti-peptide against CDK5 (AP-CDK5) and P5 was performed with the above-described method to assess anatomical regeneration. Either 2 µl AP-CDK5 or P5 (each 4 mg/ml) or vehicle (DMSO) was injected the day before SNC and the day of SNC or the day of SNC and the day after. For analyses of functional recovery, AP-CDKS was injected daily at 400 µg/kg from the day of SNC until the mice were sacrificed. AP-CDKS and P5 (Genescript) were fused to a TAT-sequence for cell membrane penetration and had the following sequence: AP-CDKS: […] and (SEQ ID No. 3) P5: […] (SEQ ID No. 13).
Motor recovery after SNC was determined by calculating the SSI as described in Baptista AF et al., 2007, J Neurosci Methods 161, 259-264 and Gobrecht et al., Nature Communications 5, 1-10 (2014). […] Toe spreading on contralateral (C, left) and ipsilateral (I, right) sides relative to the SNC was assessed by measuring paw_length (PL) and the_distance between the first and fifth toe (FF). The SSI was then calculated using the previously described formula: SSI = 101.3((IFF-CFF)/CFF)-54.03((IPL-CPL)/CPL)-9.5 in as described in Baptista AF et al., 2007, J Neurosci Methods 161, 259-264.
Data represent mean SSI±SEM per experimental group. Statistical significances of intergroup differences were evaluated using two-way ANOVA followed by the Holm Sidak post hoc test. […]

diabetic sciatic nerve [3] = assay: von Frey test, functional sensory recovery after SNC in diabetic mice; type: in vivo; conditions: i.p. daily 400 µg/kg from the day of SNC, Figure 1M
Protocol: as §2
Sensory recovery after SNC was determined at the indicated time points after SNC with the von Frey filament test as described in Gobrecht et al., 2014 and Gobrecht et al., (2016). Tests were performed at the same time of day by the same experimenter. Mice were placed on an elevated metal grid (pore size: 2 mm) and allowed to acclimate for 15 min before testing. […] Statistical significances of intergroup differences were evaluated using two-way ANOVA followed by the Holm Sidak post hoc test.
Figure 1H illustrates the timeline of experiments. […] After SNC, SSI and von Frey tests were assessed before the day of SNC, and days 1, 4, 7, 9, 14, 21, 28, and 35 thereafter.

Sequence	deregulated Cdk5-p25 activity (Cdk5-p25)	activity of endogenous Cdk5-p35 (Cdk5-p35)	anatomical regeneration of motor fibers (diabetic sciatic nerve [1]; ChAT staining)	anatomical regeneration of sensory fibers (diabetic sciatic nerve [1]; SCG10 staining)	anatomical regeneration of sympathetic fibers (diabetic sciatic nerve [1]; TH staining)	CRMP2 inactivation in neurons (pCRMP2^T514 immunostaining) (CRMP2; DRG (L6), strep-treated mice, i.p. injection, tissue harvested after completing functional recovery, Figure 1N)	CRMP2 inactivation in DRG neurons (pCRMP2^T514 Western blot) (CRMP2; L4-L6 DRG, strep T1DM mice, i.p. every day from the SNC until sacrifice, Figures 1I, 1J)	functional motor recovery assessed by static sciatic index (SSI) (diabetic sciatic nerve [2]; i.p. daily 400 µg/kg from the day of SNC, Figure 1L)	axon regeneration (pictures of the injured paw) (diabetic sciatic nerve [2]; i.p. daily from SNC, before and 1, 7, 14, 21, 28, 35 dpi, Figure 1K)	functional sensory recovery determined by the von Frey test (diabetic sciatic nerve [3])
KEAFWDRCLSVINLMSSKMLQINA (listed as Homo sapiens) [p5]	inhibited	did not affect								
LVESCKEAFWDRCLSVINLMSSKMYARAARRAARR (REGION 1..35: note = Fusion peptide) [AP-CDK5]			accelerated	accelerated	accelerated	strongly reduced	strongly reduced	provide a functional effect	accelerated	provide a functional effect
